Laboratory results as given in patent US7781421B2, “Neuroactive 13, 24-cyclo-18, 21-dinorcholanes and structurally related pentacyclic steriods” (Washington University, priority 2003, dated 2010).
Where two headings read alike, the source gives them in different places.

How the values were obtained:
[1] = target: GABAA receptor ([35S]-TBPS binding site, rat brain cortical membranes); assay: Displacement of [35S]-TBPS binding, rat brain cortical membranes; conditions: 5 μM GABA, 2 nM [35S]-TBPS; ± standard error of the means
Protocol: Rat brain cortical membranes were prepared with minor modifications of the method previously reported. (Hawkinson, J. E., et al., Correlation of Neuroactive Steroid Modulation of [^35S]t-Butylbicyclophosophorothionate and [^3H]Flunitrazepam Binding and γ-Aminobutyric AcidA Receptor Function, Mol. Pharmacol., 1994, 46, 977-985). Briefly, frozen rat cerebral cortices (Pel-freez, Rogers, Ak.) were thawed and homogenized in 10 volumes of ice-cold 0.32 M sucrose using a glass/Teflon pestle. The homogenate was centrifuged at 1500×g for 10 min at 4° C. The resultant supernatant was centrifuged at 10,000×g for 30 min at 4° C. The pellet (P2) from this centrifugation was resuspended in 200 mM NaCl, 50 mM potassium phosphate buffer, pH 7.4, and centrifuged at 10,000×g for 20 min at 4° C. This washing procedure was done a total of three times, and then pellets were resuspended in buffer (˜4 mL/brain) using a glass/Teflon pestle. The membrane suspension was aliquoted, frozen in liquid nitrogen, and stored at −80° C. prior to use.
[^35S]-TBPS Binding assays were done according to the procedure described previously (Hawkinson, J. E., et al., Correlation of Neuroactive Steroid Modulation of [^35S]t-Butylbicyclophosophorothionate and [^3H]Flunitrazepam Binding and γ-Aminobutyric AcidA Receptor Function, Mol. Pharmacol., 1994, 46, 977-985) with modifications. Briefly, aliquots of membrane solution (0.5 mg/mL final protein concentration in assay) were incubated with 5 μM GABA, 2 nM [^35S]-TBPS (45-120 Ci/mmol), and 5 μL aliquots of steroid in DMSO solution (final assay concentrations ranged from 1 nM to 10 μM), and brought to a final volume of 1 mL with 200 mM NaCl, 50 mM potassium phosphate buffer, pH 7.4. […] Assay tubes were incubated for 2 hr at room temperature. A Brandel (Gaithersburg, Md.) cell harvester was used for filtration of the assay tubes through Whatman/GF/C glass filter paper. Filter paper was rinsed with 4 mL of ice-cold buffer three times. Radioactivity bound to the filters was read by liquid scintillation counter and data was fit using Sigma Plot version 3.0 to the Hill equation i. f=Rmax/{1+([conc]/IC50)^n}
Where Rmax is the maximal effect, [conc] is steroid concentration, IC50 is the half-maximal inhibitor concentration and n is the Hill coefficient. Each data point was determined in triplicate and 2-3 full concentration-response curves were generated for each steroid.

[2] = target: T1, rat α1β2γ2 GABAA Receptor (Rattus norvegicus, UniProt P18508+P62813+P63138, INS375LLRMFSFK); assay: Xenopus oocyte two-electrode voltage-clamp electrophysiology; assay type: cell-based; conditions: for Oocyte electrophysiology, ratio of currents in presence/absence of compound, 0.1 μM: 0.1 μM compound co-applied with 2 μM GABA; for Oocyte electrophysiology, ratio of currents in presence/absence of compound, 0.1 μM / Oocyte electrophysiology, ratio of currents in presence/absence of compound, 1 μM / Oocyte electrophysiology, ratio of currents in presence/absence of compound, 10 μM: −70 mV; for Oocyte electrophysiology, ratio of currents in presence/absence of compound, 1 μM: 1 μM compound co-applied with 2 μM GABA; for Oocyte electrophysiology, ratio of currents in presence/absence of compound, 10 μM: 10 μM compound co-applied with 2 μM GABA; for Gating (10 μM), ratio of compound only current/2 μM GABA current: direct current gated by 10 μM compound in the absence of GABA
T1 construct: from linearized pBluescript vectors containing receptor coding regions; expressed in transfected cells; host or cells: Xenopus laevis oocytes injected with in vitro transcribed capped mRNA
Protocol: Stage V-VI oocytes were harvested from sexually mature female Xenopus laevis (Xenopus One, Northland, Mich.) under 0.1% tricaine (3-aminobenzoic acid ethyl ester) anesthesia. Oocytes were defolliculated by shaking for 20 min at 37° C. in collagenase (2 mg/ml) dissolved in calcium-free solution containing (in mM): 96 NaCl, 2 KCl, 1 MgCl2, and 5 HEPES at pH 7.4. Capped mRNA, encoding rat GABAA receptor α1, β2 and γ2L subunits was transcribed in vitro using the mMESSAGE mMachine Kit (Ambion, Austin, Tex.) from linearized pBluescript vectors containing receptor coding regions. Subunit transcripts were injected in equal parts (20-40 ng total RNA) 8-24 hours following defolliculation. Oocytes were incubated up to 5 days at 18° C. in ND96 medium containing (in mM): 96 NaCl, 1 KCl, 1 MgCl2, 2 CaCl2 and 5 HEPES at pH 7.4, supplemented with pyruvate (5 mM), penicillin (100 U/ml), streptomycin (100 μg/ml) and gentamycin (50 μg/ml). The cDNAs for the rat GABAA-receptor subunits were originally provided by A. Tobin, University of California, Los Angels (α1), P. Malherbe, Hoffman-La Roche, Switzerland (β2), C. Fraser, National Institute on Alcohol Abuse and Alcoholism (γ2L).
Two-electrode voltage-clamp experiments were performed with a Warner OC725 amplifier 2-5 days following RNA injection. The extracellular recording solution was ND96 medium with no supplements. Intracellular recording pipettes were filled with 3 M KCl and had open tip resistances of ˜1 MΩ. Drugs were applied from a common tip via a gravity-driven multibarrel drug-delivery system. Steroids were simultaneously co-applied with GABA. Cells were clamped at −70 mV for all experiments, and peak current during 20 s drug applications was measured. Data acquisition and analysis were performed with pCLAMP software (Axon Instruments, California). Statistical differences were determined using a two-tailed Student's t-test.
The GABA concentration used for the control response was 2 μM. Each compound was evaluated on at least four different oocytes at the concentrations indicated, and the results reported are the ratio of the currents measured in the presence/absence of added compound. (G) represents direct current gated by 10 μM compound in the absence of GABA, and this current is reported as the ratio of compound only current/2 μM GABA current. Error limits are calculated as standard error of the means.

Xenopus laevis tadpoles = assay: Tadpole loss of righting (LRR) and swimming (LSR) reflexes; assay type: in vivo; conditions: 3 h equilibration at room temperature; for EC50: read-out: LSR EC50 (loss of swimming response)
Protocol: Tadpole LRR was measured as described previously. (See, Wittmer, L. L., et al., Enantioselectivity of steroid-induced γ-aminobutyric acidA receptor modulation and anesthesia, Mol. Phar., 1996, 50:1581-1586). Briefly, groups of 10 early prelimb-bud stage Xenopus laevis tadpoles (Nasco, Fort Atkinson, Wis.) were placed in 100 mL of oxygenated Ringer's stock solution containing various concentrations of compound. Compounds were added from a 10 mM DMSO stock (final concentration of DMSO in test solutions ≦0.1%). After equilibrating at room temperature for 3 h, tadpoles were evaluated using the LRR and LSR behavioral endpoints. LRR was defined as failure of the tadpole to right itself within 5 sec after being flipped by a smooth glass rod. LSR was defined as failure of the tadpole to swim when touched by a smooth glass rod. In general, the tadpoles regained their righting and swimming reflexes when placed in fresh oxygenated Ringer's solution. Control beakers containing up to 0.6% DMSO produced no LRR or LSR in tadpoles.
Tadpole LRR and LSR concentration-response curves were fit using Sigma Plot version 3.0 to the Hill equation f=Rmax/{1+([conc]/EC50)^n}
where Rmax is the maximum effect, [conc] is the steroid concentration, EC50 is the half-maximal effective concentration, and n is the Hill coefficient.

T1 sequence (P62813 28-455, stated change not applied): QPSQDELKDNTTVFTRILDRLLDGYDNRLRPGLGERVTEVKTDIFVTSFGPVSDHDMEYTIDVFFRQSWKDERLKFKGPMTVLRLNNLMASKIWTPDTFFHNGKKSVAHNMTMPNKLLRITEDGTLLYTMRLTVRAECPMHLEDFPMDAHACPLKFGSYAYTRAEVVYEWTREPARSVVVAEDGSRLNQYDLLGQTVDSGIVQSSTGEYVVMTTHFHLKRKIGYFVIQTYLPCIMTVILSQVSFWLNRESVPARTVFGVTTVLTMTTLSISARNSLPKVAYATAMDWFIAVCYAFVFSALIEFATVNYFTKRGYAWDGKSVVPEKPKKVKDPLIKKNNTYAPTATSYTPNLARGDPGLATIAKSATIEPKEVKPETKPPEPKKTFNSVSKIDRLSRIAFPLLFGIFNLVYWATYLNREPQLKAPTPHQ
T1 sequence (P63138 26-474, stated change not applied): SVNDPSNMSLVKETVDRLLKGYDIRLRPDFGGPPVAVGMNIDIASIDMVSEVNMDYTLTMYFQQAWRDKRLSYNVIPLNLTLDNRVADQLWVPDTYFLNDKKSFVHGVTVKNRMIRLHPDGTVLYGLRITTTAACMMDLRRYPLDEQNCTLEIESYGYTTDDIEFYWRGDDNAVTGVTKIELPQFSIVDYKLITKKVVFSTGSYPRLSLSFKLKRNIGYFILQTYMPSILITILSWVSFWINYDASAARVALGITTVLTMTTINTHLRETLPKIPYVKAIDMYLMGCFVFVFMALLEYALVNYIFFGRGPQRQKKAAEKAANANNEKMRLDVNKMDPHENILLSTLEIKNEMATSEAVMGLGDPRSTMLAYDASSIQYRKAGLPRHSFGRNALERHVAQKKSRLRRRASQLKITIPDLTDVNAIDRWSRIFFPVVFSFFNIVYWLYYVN
T1 sequence (P18508 with tags, fused parts or gaps INS375LLRMFSFK): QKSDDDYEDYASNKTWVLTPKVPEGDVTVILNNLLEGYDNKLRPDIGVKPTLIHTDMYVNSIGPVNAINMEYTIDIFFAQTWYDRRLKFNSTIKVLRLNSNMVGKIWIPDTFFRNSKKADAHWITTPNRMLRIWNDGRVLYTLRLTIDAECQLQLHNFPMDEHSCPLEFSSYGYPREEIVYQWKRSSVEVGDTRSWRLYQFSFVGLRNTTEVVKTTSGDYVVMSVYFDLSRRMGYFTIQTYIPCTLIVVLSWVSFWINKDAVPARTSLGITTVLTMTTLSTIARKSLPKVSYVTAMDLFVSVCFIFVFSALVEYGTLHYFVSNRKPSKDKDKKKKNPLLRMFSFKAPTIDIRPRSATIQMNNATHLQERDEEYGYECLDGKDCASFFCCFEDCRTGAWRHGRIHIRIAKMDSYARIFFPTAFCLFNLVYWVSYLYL

Row | Compound | IC50 [1] | Oocyte electrophysiology, ratio of currents in presence/absence of compound, 0.1 μM [2] | Oocyte electrophysiology, ratio of currents in presence/absence of compound, 1 μM [2] | Oocyte electrophysiology, ratio of currents in presence/absence of compound, 10 μM [2] | Gating (10 μM), ratio of compound only current/2 μM GABA current [2] | LRR ED50 (loss of righting response) (Xenopus laevis tadpoles) | EC50 (Xenopus laevis tadpoles; Xenopus laevis, 3 h) | melting point | LSR EC50 (loss of swimming response) (Xenopus laevis tadpoles) | EC50 (Xenopus laevis tadpoles)
1 | CC12CCC(O)CC1CCC1C2CCC23C(=O)CCCC2CCC13 (stereo not drawn) [Compound 5b, (3α,5β)-3-Hydroxy-13,24-cyclo-18,21-dinorcholan-24-one] | 0.329 ± 0.035 µM | 1.26 ± 0.05 | 3.45 ± 0.29 | 10.42 ± 1.65 | 0.04 ± 0.02 | 0.40 ± 0.12 µM | 0.89 µM | 177 to 178 °C |  | 
2 | CC12CCC(O)CC1CCC1C2CCC23CC=CC(=O)C2CCC13 (stereo not drawn) [Compound 11a, (3α,5α)-3-Hydroxy-13,24-cyclo-18,21-dinorchol-22-en-20-one] | 0.373 ± 0.02 µM | 1.49 ± 0.20 | 5.87 ± 1.52 | 9.07 ± 1.86 | 0.72 ± 0.03 | 3.38 ± 0.67 µM |  | 230 to 232 °C | None @ 10 | 
3 | CC12CCC(O)CC1CCC1C2CCC23CC=CC(=O)C2CCC13 (stereo not drawn) [Compound 11b, (3α, 5β)-3-Hydroxy-13,24-cyclo-18,21-dinorchol-22-en-20-one] | 1.57 µM | 1.07 ± 0.17 | 1.17 ± 0.11 | 2.34 ± 0.37 | 0.11 ± 0.04 | 2.56 ± 1.39 µM | 8.95 ± 0.01 µM | 253 to 254 °C |  | 
4 | CC12CCC(O)CC1CCC1C2CCC23CCC=CC2CCC13 (stereo not drawn) [Compound 13a, (3α,5α)-13,24-Cyclo-18,21-dinorchol-20(22)-en-3-ol] | 0.569 ± 0.028 µM | 1.53 ± 0.45 | 2.12 ± 0.40 | 2.68 ± 0.42 | −0.32 ± 0.15 | >10 µM |  | 169 to 170 °C | None @ 10 | 
5 | CC12CCC(O)CC1CCC1C2CCC23CCC=CC2CCC13 (stereo not drawn) [Compound 13b, (3α,5β)-13,24-Cyclo-18,21-dinorchol-20(22)-en-3-ol] | 0.484 ± 0.103 µM | 1.44 ± 0.17 | 2.09 ± 0.35 | 3.48 ± 1.01 | −0.05 ± 0.09 | 1.28 ± 1.80 µM | > 10 µM | 168 to 169 °C |  | 
6 | CC12CCC(O)CC1CCC1C2CCC23CC4OC4C(=O)C2CCC13 [Compound 19a, (3α,5α,22S,23S)-22,23-Epoxy-3-hydroxy-13,24-cyclo-18,21-dinorcholan-20-one] | 0.37 ± 0.042 µM | 1.47 ± 0.17 | 1.92 ± 0.23 | 8.90 ± 2.10 | 0.23 ± 0.24 | 1.75 ± 0.46 µM | 10 µM | 238 to 240 °C |  | 
7 | CC12CCC(O)CC1CCC1C2CCC23CC4OC4C(=O)C2CCC13 [Compound 19b, (3α,5α,22R,23R)-22,23-Epoxy-3-hydroxy-13,24-cyclo-18,21-dinorcholan-20-one] | 0.313 ± 0.018 µM | 1.13 ± 0.02 | 2.11 ± 0.26 | 5.47 ± 0.62 | 0.21 ± 0.02 | 0.96 ± 0.29 µM |  | 194 to 195 °C |  | 10 µM
8 | CC12CCC(O)CC1CCC1C2CCC23CC(=O)C=CC2CCC13 (stereo not drawn) [Compound 21c, (3α,5α)-3-Hydroxy-13,24-cyclo-18,21-dinorchol-20(22)-en-23-one] | 0.243 ± 0.011 µM | 1.59 ± 0.14 | 5.53 ± 0.66 | 16.58 ± 2.45 | 0.35 ± 0.12 | 1.28 ± 0.38 µM |  | 209 to 210 °C |  | 10 µM
9 | CC12CCC(O)CC1CCC1C2CCC23CC(=O)C=CC2CCC13 (stereo not drawn) [Compound 22c, (3α,5β)-3-Hydroxy-13,24-cyclo-18,21-dinorchol-20(22)-en-23-one] | 0.268 ± 0.043 µM | 1.07 ± 0.10 | 1.83 ± 0.25 | 4.50 ± 0.46 | −0.02 ± 0.01 | 1.05 ± 0.00 µM |  | 209 to 211 °C |  | 2.72 ± 0.01 µM
